Source: US11725011B2, “Bicyclic urea kinase inhibitors and uses thereof” (The Broad Institute, Inc., priority 2016, dated 2023)

What was measured:
CSNK1G2 = CSNK1G2 (Homo sapiens (Human), UniProt P78368); assay: KINOMEscan; format: binding; settings: 1 uM
PIM1 = PIM1 (Homo sapiens (Human), UniProt P11309); assay: KINOMEscan; format: binding; settings: 1 uM
SIK2 = SIK2 (Homo sapiens (Human), UniProt Q9H0K1); assay: Percent activity against SIK2 at 1 μM; format: biochemical
PLK2 = PLK2 (Homo sapiens (Human), UniProt Q9NYY3); assay: KINOMEscan; format: binding; settings: 1 uM
Chain of PLK2 (Q9NYY3 whole entry): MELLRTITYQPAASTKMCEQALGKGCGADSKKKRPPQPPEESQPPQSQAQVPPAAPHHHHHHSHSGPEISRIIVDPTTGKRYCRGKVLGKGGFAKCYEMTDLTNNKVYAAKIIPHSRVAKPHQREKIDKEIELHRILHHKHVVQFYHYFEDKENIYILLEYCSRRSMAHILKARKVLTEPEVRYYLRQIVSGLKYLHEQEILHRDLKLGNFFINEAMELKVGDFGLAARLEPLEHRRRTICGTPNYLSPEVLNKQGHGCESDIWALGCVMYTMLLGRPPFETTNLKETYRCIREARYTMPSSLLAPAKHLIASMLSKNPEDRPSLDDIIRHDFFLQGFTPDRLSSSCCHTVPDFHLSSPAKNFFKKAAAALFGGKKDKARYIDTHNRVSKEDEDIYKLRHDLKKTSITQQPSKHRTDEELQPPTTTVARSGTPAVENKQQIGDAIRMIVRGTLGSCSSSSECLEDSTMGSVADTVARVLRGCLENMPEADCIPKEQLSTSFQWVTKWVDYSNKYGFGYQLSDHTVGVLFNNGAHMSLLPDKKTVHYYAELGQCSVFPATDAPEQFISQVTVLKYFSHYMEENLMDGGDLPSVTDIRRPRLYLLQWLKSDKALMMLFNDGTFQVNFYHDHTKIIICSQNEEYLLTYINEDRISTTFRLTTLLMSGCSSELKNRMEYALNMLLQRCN

PIK3CA (H1047L) = PIK3CA (H1047L) (Homo sapiens (Human), UniProt P42336, H1047L); assay: KINOMEscan; format: binding; settings: 1 uM
CLK1 = CLK1 (Homo sapiens (Human), UniProt P49759); assay: KINOMEscan; format: binding; settings: 1 uM
CTK = CTK (Homo sapiens (Human), UniProt P42679); assay: KINOMEscan; format: binding; settings: 1 uM
ZAK = ZAK (Homo sapiens (Human), UniProt Q9NYL2); assay: KINOMEscan; format: binding; settings: 1 uM
LTK = LTK (Homo sapiens (Human), UniProt P29376); assay: KINOMEscan; format: binding; settings: 1 uM
MELK = MELK (Homo sapiens (Human), UniProt Q14680); assay: KINOMEscan; format: binding; settings: 1 uM
INSRR = INSRR (Homo sapiens (Human), UniProt P14616); assay: KINOMEscan; format: binding; settings: 1 uM
PRKCE = PRKCE (Homo sapiens (Human), UniProt Q02156); assay: KINOMEscan; format: binding; settings: 1 uM
TRPM6 = TRPM6 (Homo sapiens (Human), UniProt Q9BX84); assay: KINOMEscan; format: binding; settings: 1 uM
PIK3CA (Q546K) = PIK3CA (Q546K) (Homo sapiens (Human), UniProt P42336, Q546K); assay: KINOMEscan; format: binding; settings: 1 uM
[1] = biological target: ABL1 (Q252H)-nonphosphorylated (Homo sapiens (Human), UniProt P00519, Q252H); assay: KINOMEscan; format: binding; settings: 1 uM
DMPK2 = DMPK2 (Homo sapiens (Human), UniProt Q6DT37); assay: KINOMEscan; format: binding; settings: 1 uM
EPHB1 = EPHB1 (Homo sapiens (Human), UniProt P54762); assay: KINOMEscan; format: binding; settings: 1 uM
RIOK1 = RIOK1 (Homo sapiens (Human), UniProt Q9BRS2); assay: KINOMEscan; format: binding; settings: 1 uM
NIM1 = NIM1 (Homo sapiens (Human), UniProt Q8IY84); assay: KINOMEscan; format: binding; settings: 1 uM
MST1 = MST1 (Homo sapiens (Human), UniProt Q13043); assay: KINOMEscan; format: binding; settings: 1 uM
PRKCQ = PRKCQ (Homo sapiens (Human), UniProt Q04759); assay: KINOMEscan; format: binding; settings: 1 uM
DCAMKL1 = DCAMKL1 (Homo sapiens (Human), UniProt O15075); assay: KINOMEscan; format: binding; settings: 1 uM
CAMK2B = CAMK2B (Homo sapiens (Human), UniProt Q13554); assay: KINOMEscan; format: binding; settings: 1 uM
QSK = QSK (Homo sapiens (Human), UniProt Q9Y2K2); assay: KINOMEscan; format: binding; settings: 1 uM
Chain of QSK (Q9Y2K2 whole entry): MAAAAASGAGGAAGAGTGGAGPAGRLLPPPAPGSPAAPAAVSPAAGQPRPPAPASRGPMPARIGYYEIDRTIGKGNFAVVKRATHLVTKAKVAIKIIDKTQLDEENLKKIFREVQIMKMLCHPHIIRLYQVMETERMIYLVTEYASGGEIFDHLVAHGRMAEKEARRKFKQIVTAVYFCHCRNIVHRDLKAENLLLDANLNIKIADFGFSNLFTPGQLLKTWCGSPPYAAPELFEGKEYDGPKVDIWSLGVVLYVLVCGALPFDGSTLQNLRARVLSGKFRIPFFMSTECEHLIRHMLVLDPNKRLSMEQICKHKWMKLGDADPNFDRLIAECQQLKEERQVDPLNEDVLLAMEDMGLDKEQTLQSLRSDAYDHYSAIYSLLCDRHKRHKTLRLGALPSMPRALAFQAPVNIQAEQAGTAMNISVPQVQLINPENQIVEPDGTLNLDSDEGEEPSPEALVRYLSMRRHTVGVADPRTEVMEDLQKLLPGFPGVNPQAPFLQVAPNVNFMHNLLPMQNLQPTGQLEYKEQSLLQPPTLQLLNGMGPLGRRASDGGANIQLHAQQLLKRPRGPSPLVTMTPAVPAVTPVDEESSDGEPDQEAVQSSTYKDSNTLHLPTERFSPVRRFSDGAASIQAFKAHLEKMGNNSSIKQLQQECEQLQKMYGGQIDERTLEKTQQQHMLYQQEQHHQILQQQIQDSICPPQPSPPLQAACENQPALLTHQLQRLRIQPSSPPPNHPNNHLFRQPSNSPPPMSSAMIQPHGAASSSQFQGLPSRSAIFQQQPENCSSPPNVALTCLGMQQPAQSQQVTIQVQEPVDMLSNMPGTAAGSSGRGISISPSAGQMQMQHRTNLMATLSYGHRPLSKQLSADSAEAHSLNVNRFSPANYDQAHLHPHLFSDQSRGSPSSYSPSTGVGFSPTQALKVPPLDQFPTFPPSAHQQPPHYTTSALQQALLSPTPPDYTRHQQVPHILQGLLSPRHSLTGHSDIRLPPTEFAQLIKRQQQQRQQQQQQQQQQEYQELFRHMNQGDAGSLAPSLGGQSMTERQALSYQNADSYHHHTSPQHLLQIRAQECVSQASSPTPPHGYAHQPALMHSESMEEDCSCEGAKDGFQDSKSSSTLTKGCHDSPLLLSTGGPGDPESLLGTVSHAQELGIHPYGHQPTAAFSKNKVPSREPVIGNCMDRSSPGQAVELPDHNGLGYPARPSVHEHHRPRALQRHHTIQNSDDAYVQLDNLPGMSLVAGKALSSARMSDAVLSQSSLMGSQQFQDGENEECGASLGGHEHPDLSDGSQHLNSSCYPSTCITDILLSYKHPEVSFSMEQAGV

RET (V804M) = RET (V804M) (Homo sapiens (Human), UniProt P07949, V804M); assay: KINOMEscan; format: binding; settings: 1 uM
PIK3CA (E542K) = PIK3CA (E542K) (Homo sapiens (Human), UniProt P42336, E542K); assay: KINOMEscan; format: binding; settings: 1 uM
PHKG1 = PHKG1 (Homo sapiens (Human), UniProt Q16816); assay: KINOMEscan; format: binding; settings: 1 uM
Chain of PHKG1 (Q16816 whole entry): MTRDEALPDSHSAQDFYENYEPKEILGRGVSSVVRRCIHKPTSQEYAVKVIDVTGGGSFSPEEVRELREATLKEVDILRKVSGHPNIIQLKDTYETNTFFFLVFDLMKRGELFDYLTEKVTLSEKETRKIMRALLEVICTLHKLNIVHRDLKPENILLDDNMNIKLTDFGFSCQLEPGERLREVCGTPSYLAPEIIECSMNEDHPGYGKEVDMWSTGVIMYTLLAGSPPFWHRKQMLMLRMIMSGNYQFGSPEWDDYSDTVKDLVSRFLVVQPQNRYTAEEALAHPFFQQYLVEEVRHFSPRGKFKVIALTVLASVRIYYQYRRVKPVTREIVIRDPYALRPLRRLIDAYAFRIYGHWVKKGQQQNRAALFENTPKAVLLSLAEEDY

MKNK1 = MKNK1 (Homo sapiens (Human), UniProt Q9BUB5); assay: KINOMEscan; format: binding; settings: 1 uM
Chain of MKNK1 (Q9BUB5 whole entry): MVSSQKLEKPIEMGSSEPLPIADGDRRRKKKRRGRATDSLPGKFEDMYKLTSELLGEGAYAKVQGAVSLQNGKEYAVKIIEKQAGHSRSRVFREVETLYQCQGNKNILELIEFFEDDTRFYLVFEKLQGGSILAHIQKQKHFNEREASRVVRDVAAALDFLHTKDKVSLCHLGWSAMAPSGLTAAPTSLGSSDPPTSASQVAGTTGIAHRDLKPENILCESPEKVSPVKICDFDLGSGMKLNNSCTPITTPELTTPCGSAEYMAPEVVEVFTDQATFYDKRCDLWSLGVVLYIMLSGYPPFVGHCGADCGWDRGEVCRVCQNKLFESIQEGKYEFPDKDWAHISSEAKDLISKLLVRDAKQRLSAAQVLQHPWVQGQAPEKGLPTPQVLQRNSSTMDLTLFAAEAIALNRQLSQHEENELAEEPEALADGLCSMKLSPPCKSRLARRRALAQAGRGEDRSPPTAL

LRRK2 (G2019S) = LRRK2 (G2019S) (Homo sapiens (Human), UniProt Q5S007, G2019S); assay: KINOMEscan; format: binding; settings: 1 uM
ACVR1B = ACVR1B (Homo sapiens (Human), UniProt P36896); assay: KINOMEscan; format: binding; settings: 1 uM
BTK = BTK (Homo sapiens (Human), UniProt Q06187); assay: KINOMEscan; format: binding; settings: 1 uM
Chain of BTK (Q06187 whole entry): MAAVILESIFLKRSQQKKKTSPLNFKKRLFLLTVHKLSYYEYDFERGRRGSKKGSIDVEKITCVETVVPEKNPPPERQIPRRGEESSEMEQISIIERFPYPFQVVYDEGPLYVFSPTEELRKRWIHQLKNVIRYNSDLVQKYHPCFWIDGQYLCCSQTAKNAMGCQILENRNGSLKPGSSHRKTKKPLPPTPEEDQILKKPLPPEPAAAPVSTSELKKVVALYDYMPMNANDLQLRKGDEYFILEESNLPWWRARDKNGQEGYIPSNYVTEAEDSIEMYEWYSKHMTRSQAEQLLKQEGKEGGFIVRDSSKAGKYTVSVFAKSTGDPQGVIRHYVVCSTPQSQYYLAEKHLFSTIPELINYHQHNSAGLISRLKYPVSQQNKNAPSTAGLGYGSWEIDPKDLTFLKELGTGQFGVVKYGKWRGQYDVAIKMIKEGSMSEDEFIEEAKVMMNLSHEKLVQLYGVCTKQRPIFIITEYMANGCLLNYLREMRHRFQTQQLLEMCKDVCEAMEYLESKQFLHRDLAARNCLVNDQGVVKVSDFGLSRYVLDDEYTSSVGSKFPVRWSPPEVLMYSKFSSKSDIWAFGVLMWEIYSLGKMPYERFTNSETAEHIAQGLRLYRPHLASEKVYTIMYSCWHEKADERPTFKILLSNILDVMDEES

[2] = biological target: ABL1 (H396P)-phosphorylated (Homo sapiens (Human), UniProt P00519, H396P); assay: KINOMEscan; format: binding; settings: 1 uM
[3] = biological target: TYK2 (JH1domain-catalytic) (Homo sapiens (Human), UniProt P29597); assay: KINOMEscan; format: binding; settings: 1 uM
Chain of TYK2 (JH1domain-catalytic) (P29597 897-1176): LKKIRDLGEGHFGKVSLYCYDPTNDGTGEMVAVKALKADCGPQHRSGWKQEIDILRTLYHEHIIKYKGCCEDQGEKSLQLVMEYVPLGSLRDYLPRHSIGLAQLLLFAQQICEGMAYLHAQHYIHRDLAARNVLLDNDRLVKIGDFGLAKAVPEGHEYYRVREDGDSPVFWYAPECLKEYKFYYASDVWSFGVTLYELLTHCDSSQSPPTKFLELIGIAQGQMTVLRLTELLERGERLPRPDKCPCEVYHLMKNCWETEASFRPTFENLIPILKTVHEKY

[4] = biological target: RSK2 (Kin.Dom.1-N-terminal) (Homo sapiens (Human), UniProt P51812); assay: KINOMEscan; format: binding; settings: 1 uM
Chain of RSK2 (Kin.Dom.1-N-terminal) (P51812 68-327): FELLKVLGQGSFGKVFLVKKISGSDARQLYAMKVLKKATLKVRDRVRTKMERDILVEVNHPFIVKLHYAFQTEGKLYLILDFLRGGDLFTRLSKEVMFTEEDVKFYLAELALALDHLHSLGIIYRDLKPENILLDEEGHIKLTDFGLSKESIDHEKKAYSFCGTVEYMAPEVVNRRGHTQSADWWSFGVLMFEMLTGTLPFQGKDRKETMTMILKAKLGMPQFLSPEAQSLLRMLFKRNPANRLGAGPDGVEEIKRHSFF

MAP4K2 = MAP4K2 (Homo sapiens (Human), UniProt Q12851); assay: KINOMEscan; format: binding; settings: 1 uM
[5] = biological target: EGFR (L747-S752del, P753S) (Homo sapiens (Human), UniProt P00533, DEL747-752/P753S); assay: KINOMEscan; format: binding; settings: 1 uM
ACVR2A = ACVR2A (Homo sapiens (Human), UniProt P27037); assay: KINOMEscan; format: binding; settings: 1 uM
RET (V804L) = RET (V804L) (Homo sapiens (Human), UniProt P07949, V804L); assay: KINOMEscan; format: binding; settings: 1 uM
MYLK4 = MYLK4 (Homo sapiens (Human), UniProt Q86YV6); assay: KINOMEscan; format: binding; settings: 1 uM

Chain of SIK2 (Q9H0K1 whole entry): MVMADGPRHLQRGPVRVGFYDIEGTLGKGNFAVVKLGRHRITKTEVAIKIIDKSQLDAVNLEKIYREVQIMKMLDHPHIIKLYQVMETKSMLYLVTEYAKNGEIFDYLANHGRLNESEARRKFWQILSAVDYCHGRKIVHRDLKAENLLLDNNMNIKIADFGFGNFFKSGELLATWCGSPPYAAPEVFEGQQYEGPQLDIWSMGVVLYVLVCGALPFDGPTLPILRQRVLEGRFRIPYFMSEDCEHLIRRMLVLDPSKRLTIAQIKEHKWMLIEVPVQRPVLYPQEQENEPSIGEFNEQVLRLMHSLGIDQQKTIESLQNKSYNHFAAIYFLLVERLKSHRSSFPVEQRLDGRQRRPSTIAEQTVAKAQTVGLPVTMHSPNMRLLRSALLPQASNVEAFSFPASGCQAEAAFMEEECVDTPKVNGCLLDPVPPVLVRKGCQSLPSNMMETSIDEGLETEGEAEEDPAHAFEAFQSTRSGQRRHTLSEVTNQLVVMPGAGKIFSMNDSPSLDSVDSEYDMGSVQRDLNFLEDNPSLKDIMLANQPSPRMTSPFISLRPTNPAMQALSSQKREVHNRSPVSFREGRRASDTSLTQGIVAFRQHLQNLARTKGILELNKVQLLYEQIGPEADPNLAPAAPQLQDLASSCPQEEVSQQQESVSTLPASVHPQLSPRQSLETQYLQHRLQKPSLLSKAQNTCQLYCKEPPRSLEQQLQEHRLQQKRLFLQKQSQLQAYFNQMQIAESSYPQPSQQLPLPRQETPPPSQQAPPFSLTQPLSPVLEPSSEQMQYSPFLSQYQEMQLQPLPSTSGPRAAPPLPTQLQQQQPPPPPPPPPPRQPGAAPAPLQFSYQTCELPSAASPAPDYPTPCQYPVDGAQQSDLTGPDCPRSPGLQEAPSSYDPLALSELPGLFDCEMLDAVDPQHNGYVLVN

## COc1ccc(N2C(=O)N(c3c(C)cccc3C)Cc3cnc(Nc4ccc(N5CCN(C)CC5)cc4)nc32)c(OC)c1 [HG-11-136-01]
CSNK1G2
  KINOMEscan CSNK1G2: 100
PIM1
  KINOMEscan PIM1: 100
SIK2; 1 μM
  Enzyme activity at 1 μM (%) SIK2: 2.8%
SIK2; compound at 1 μM, approximate Km for ATP
  SIK2 % ACTIVITY: 2.8%
PLK2
  KINOMEscan PLK2: 21
PIK3CA (H1047L)
  KINOMEscan PIK3CA (H1047L): 96
CLK1
  KINOMEscan CLK1: 19
CTK
  KINOMEscan CTK: 33
ZAK
  KINOMEscan ZAK: 1.2
LTK
  KINOMEscan LTK: 18
MELK
  KINOMEscan MELK: 36
INSRR
  KINOMEscan INSRR: 100
PRKCE
  KINOMEscan PRKCE: 61
TRPM6
  KINOMEscan TRPM6: 69
PIK3CA (Q546K)
  KINOMEscan PIK3CA (Q546K): 94
[1]
  KINOMEscan ABL1 (Q252H)-nonphosphorylated: 0
DMPK2
  KINOMEscan DMPK2: 1.6
EPHB1
  KINOMEscan EPHB1: 0.3
RIOK1
  KINOMEscan RIOK1: 9.2
NIM1
  KINOMEscan NIM1: 42
MST1
  KINOMEscan MST1: 2.1
PRKCQ
  KINOMEscan PRKCQ: 80
DCAMKL1
  KINOMEscan DCAMKL1: 51
CAMK2B
  KINOMEscan CAMK2B: 90
QSK
  KINOMEscan QSK: 0.25
RET (V804M)
  KINOMEscan RET (V804M): 7.6
PIK3CA (E542K)
  KINOMEscan PIK3CA (E542K): 88
PHKG1
  KINOMEscan PHKG1: 100
MKNK1
  KINOMEscan MKNK1: 85
LRRK2 (G2019S)
  KINOMEscan LRRK2 (G2019S): 6.6
ACVR1B
  KINOMEscan ACVR1B: 9.6
BTK
  KINOMEscan BTK: 0.05
[2]
  KINOMEscan ABL1 (H396P)-phosphorylated: 0
[3]
  KINOMEscan TYK2 (JH1domain-catalytic): 5.6
[4]
  KINOMEscan RSK2 (Kin.Dom.1-N-terminal): 12
MAP4K2
  KINOMEscan MAP4K2: 0.3
[5]
  KINOMEscan EGFR (L747-S752del, P753S): 0.95
ACVR2A
  KINOMEscan ACVR2A: 5
RET (V804L)
  KINOMEscan RET (V804L): 24
MYLK4
  KINOMEscan MYLK4: 60
